“And” between values parts separate entries of the source, which are not always exact repeats. Equal values may be shown once. Toxic doses and inconclusive results are not listed.
Test system: BDF1 mice, P388 leukemia ip, median survival T/C
Assay: NCI In Vivo Anticancer Drug Screen. Data for tumor model P388 Leukemia (intraperitoneal) in B6D2F1 (BDF1) mice
Settings: endpoint: median survival time, higher = longer survival
In short: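 T/C = treated-group survival ÷ vehicle-control survival; tumour transplanted into mice before dosing.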

[1] = dose: 100.0 mg/kg/injection, schedule: Q01DX009 (ip), vehicle: saline with Tween-80
[2] = dose: 100.0 mg/kg/injection, schedule: Q04DX003 (ip), vehicle: saline with Tween-80
[3] = dose: 200.0 mg/kg/injection, schedule: Q04DX003 (ip), vehicle: saline with Tween-80
[4] = dose: 400.0 mg/kg/injection, schedule: Q04DX003 (ip), vehicle: saline with Tween-80
[5] = dose: 50.0 mg/kg/injection, schedule: Q01DX009 (ip), vehicle: saline with Tween-80

O=C(O)C1CCCN1C(=O)c1ccc(Cl)c(Cl)c1 (stereo not given)
T/C (dose: 50.0 mg/kg/injection, schedule: Q01DX005 (ip), vehicle: saline with Tween-80): 100 % of control
T/C (dose: 100.0 mg/kg/injection, schedule: Q01DX005 (ip), vehicle: saline with Tween-80): 93 % of control
T/C (dose: 200.0 mg/kg/injection, schedule: Q01DX005 (ip), vehicle: saline with Tween-80): 99 % of control

CS(=O)(=O)OCC(O)C(O)COS(C)(=O)=O (stereo not given)
T/C (dose: 50.0 mg/kg/injection, schedule: Q01DX010 (ip), vehicle: saline): 109 % of control
T/C [1]: 91 % of control
T/C (dose: 100.0 mg/kg/injection, schedule: Q01DX010 (ip), vehicle: saline): 109 % of control
T/C (dose: 200.0 mg/kg/injection, schedule: Q01DX009 (ip), vehicle: saline with Tween-80): 100 % of control
T/C (dose: 200.0 mg/kg/injection, schedule: Q01DX010 (ip), vehicle: saline): 100 % of control
T/C (dose: 400.0 mg/kg/injection, schedule: Q01DX009 (ip), vehicle: saline with Tween-80): 87 % of control
T/C (dose: 400.0 mg/kg/injection, schedule: Q01DX010 (ip), vehicle: saline): 209 % of control
T/C (dose: 800.0 mg/kg/injection, schedule: Q01DX010 (ip), vehicle: saline): 163 % of control

CCCC(=O)NO
T/C (dose: 100.0 mg/kg/injection, schedule: Q01DX009 (ip), vehicle: saline sonified): 100 % of control
T/C (dose: 200.0 mg/kg/injection, schedule: Q01DX009 (ip), vehicle: saline sonified): 100 % of control
T/C (dose: 400.0 mg/kg/injection, schedule: Q01DX009 (ip), vehicle: saline sonified): 100 % of control

CCCC(Cc1ccccc1)(C(=O)OCC)C(=O)OCC
T/C [2]: 99 % of control
T/C [3]: 99 % of control
T/C [4]: 91 % of control

COc1cc2c(cc1OC)-c1cc3cc(OC)c(OC)cc3c(C)[n+]1CC2 (tested in a mixture with another compound)
T/C (dose: 12.5 mg/kg/injection, schedule: Q01DX009 (ip), vehicle: Klucel (hydroxypropylcellulose) (HPC)): 103 % of control
T/C (dose: 25.0 mg/kg/injection, schedule: Q01DX009 (ip), vehicle: saline with Tween-80): 104 % of control
T/C (dose: 50.0 mg/kg/injection, schedule: Q01DX009 (ip), vehicle: Klucel (hydroxypropylcellulose) (HPC)): 123 % of control
T/C [5]: 113 % of control
T/C [1]: 154 % of control

Nc1nccnc1C(=O)O
T/C (dose: 12.5 mg/kg/injection, schedule: Q01DX009 (ip), vehicle: water): 102 % of control
T/C (dose: 25.0 mg/kg/injection, schedule: Q01DX009 (ip), vehicle: water): 109 % of control
T/C (dose: 50.0 mg/kg/injection, schedule: Q01DX009 (ip), vehicle: water): 117 % of control
T/C (dose: 100.0 mg/kg/injection, schedule: Q01DX009 (ip), vehicle: water): 105 % of control
T/C (dose: 200.0 mg/kg/injection, schedule: Q04DX003 (ip), vehicle: water): 101 % of control
T/C (dose: 300.0 mg/kg/injection, schedule: Q04DX003 (ip), vehicle: water): 110 % of control
T/C (dose: 400.0 mg/kg/injection, schedule: Q01DX009 (ip), vehicle: water): 109 % of control
T/C (dose: 400.0 mg/kg/injection, schedule: Q04DX003 (ip), vehicle: water): 105 % of control
T/C (dose: 600.0 mg/kg/injection, schedule: Q04DX003 (ip), vehicle: water): 100 % of control

O=C(O)C(=O)O.[U]
T/C (dose: 25.0 mg/kg/injection, schedule: Q04DX003 (ip), vehicle: saline with Tween-80): 100 % of control

O=C(c1ccccc1)C1(C(=O)c2ccccc2)c2ccccc2-c2ccccc21
T/C (dose: 50.0 mg/kg/injection, schedule: Q01DX005 (ip), vehicle: Klucel (hydroxypropylcellulose) (HPC)): 101 % of control
T/C (dose: 100.0 mg/kg/injection, schedule: Q01DX005 (ip), vehicle: Klucel (hydroxypropylcellulose) (HPC)): 104 % of control
T/C (dose: 200.0 mg/kg/injection, schedule: Q01DX005 (ip), vehicle: Klucel (hydroxypropylcellulose) (HPC)): 101 % of control

COc1cc2c(cc1NC(=O)N(CCCl)N=O)-c1ccccc1C2
T/C (dose: 8.3 mg/kg/injection, schedule: Q04DX003 (ip), vehicle: Klucel (hydroxypropylcellulose) (HPC)): 108 % of control
T/C (dose: 12.0 mg/kg/injection, schedule: Q04DX003 (ip), vehicle: Klucel (hydroxypropylcellulose) (HPC)): 113 % of control
T/C (dose: 19.0 mg/kg/injection, schedule: Q04DX003 (ip), vehicle: Klucel (hydroxypropylcellulose) (HPC)): 154 % of control
T/C (dose: 29.0 mg/kg/injection, schedule: Q04DX003 (ip), vehicle: Klucel (hydroxypropylcellulose) (HPC)): 154 % of control
T/C (dose: 45.0 mg/kg/injection, schedule: Q04DX003 (ip), vehicle: Klucel (hydroxypropylcellulose) (HPC)): 172 % of control
T/C (dose: 65.0 mg/kg/injection, schedule: Q04DX003 (ip), vehicle: Klucel (hydroxypropylcellulose) (HPC)): 190 % of control
T/C (dose: 100.0 mg/kg/injection, schedule: Q04DX003 (ip), vehicle: Klucel (hydroxypropylcellulose) (HPC)): 168 % of control
T/C (dose: 200.0 mg/kg/injection, schedule: Q04DX003 (ip), vehicle: Klucel (hydroxypropylcellulose) (HPC)): 172 % of control
T/C (dose: 400.0 mg/kg/injection, schedule: Q04DX003 (ip), vehicle: Klucel (hydroxypropylcellulose) (HPC)): 209 % of control

CC1CN1P(=S)(N1CCCC1)N1CC1C (stereo not given)
T/C (dose: 17.8 mg/kg/injection, schedule: Q01DX009 (ip), vehicle: saline with Tween-80): 112 % of control
T/C (dose: 26.6 mg/kg/injection, schedule: Q01DX009 (ip), vehicle: saline with Tween-80): 114 % of control
T/C (dose: 40.0 mg/kg/injection, schedule: Q01DX009 (ip), vehicle: saline with Tween-80): 168 % of control
T/C [5]: 150 % of control
T/C (dose: 60.0 mg/kg/injection, schedule: Q01DX009 (ip), vehicle: saline with Tween-80): 214 % of control
T/C [1]: 170 % of control

CSc1ncnc2c1ncn2CO
T/C (dose: 30.0 mg/kg/injection, schedule: Q01DX009 (ip), vehicle: Klucel (hydroxypropylcellulose) (HPC)): 110 % of control
T/C (dose: 30.0 mg/kg/injection, schedule: Q01DX009 (ip), vehicle: saline): 108 % of control
T/C (dose: 100.0 mg/kg/injection, schedule: Q01DX009 (ip), vehicle: Klucel (hydroxypropylcellulose) (HPC)): 150 % of control
T/C [1]: 154 % of control
T/C (dose: 120.0 mg/kg/injection, schedule: Q01DX009 (ip), vehicle: Klucel (hydroxypropylcellulose) (HPC)): 150 % of control
T/C (dose: 150.0 mg/kg/injection, schedule: Q01DX009 (ip), vehicle: Klucel (hydroxypropylcellulose) (HPC)): 90 % of control
T/C [4]: 95 % of control

CCNC(C)(C)C(SSSC(c1cccs1)C(C)(C)NCC)c1cccs1 (stereo not given)
T/C (dose: 100.0 mg/kg/injection, schedule: Q01DX001 (ip), vehicle: saline): 104 % of control
T/C (dose: 200.0 mg/kg/injection, schedule: Q01DX001 (ip), vehicle: saline): 118 % of control

Cc1ccc(CNc2ccc(F)cc2)cc1
T/C (dose: 100.0 mg/kg/injection, schedule: Q01DX009 (ip), vehicle: other): 100 % of control
T/C [2]: 95 % of control
T/C (dose: 178.0 mg/kg/injection, schedule: Q01DX009 (ip), vehicle: other): 100 % of control
T/C (dose: 200.0 mg/kg/injection, schedule: Q01DX009 (ip), vehicle: other): 95 % of control
T/C [3]: 104 % of control
T/C (dose: 266.0 mg/kg/injection, schedule: Q01DX009 (ip), vehicle: other): 109 % of control
T/C (dose: 400.0 mg/kg/injection, schedule: Q01DX009 (ip), vehicle: other): 104 % of control
T/C [4]: 100 % of control

NCC1OC(OC2C(N)CC(N)C(O)C2OC2OC(CO)C(O)C2O)C(N)C(O)C1O (stereo not given)
T/C (dose: 12.5 mg/kg/injection, schedule: Q01DX009 (ip), vehicle: saline): 104 % of control
T/C (dose: 25.0 mg/kg/injection, schedule: Q01DX009 (ip), vehicle: saline): 111 % of control
T/C (dose: 50.0 mg/kg/injection, schedule: Q01DX009 (ip), vehicle: saline): 111 % of control
T/C (dose: 100.0 mg/kg/injection, schedule: Q01DX009 (ip), vehicle: saline): 110 % of control and 114 % of control and 120 % of control
T/C (dose: 150.0 mg/kg/injection, schedule: Q01DX009 (ip), vehicle: saline): 105 % of control
T/C (dose: 200.0 mg/kg/injection, schedule: Q01DX009 (ip), vehicle: saline): 119 % of control
T/C (dose: 225.0 mg/kg/injection, schedule: Q01DX009 (ip), vehicle: saline): 99 % of control
T/C (dose: 400.0 mg/kg/injection, schedule: Q01DX009 (ip), vehicle: saline): 99 % of control
